According to PubChem BioAssay AID504322 (Emory University Molecular Libraries Screening Center, 2011):
Calls of active or inactive are those of the source. How the calls were made is not given here.

tested on: CHOP reporter cell assay, percent of control; assay: CHOP reporter inhibitor potency, dose response, cell-based (AID 504322);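 further: CHO cells carrying a CHOP reporter stimulated with tunicamycin to induce ER stress; potency is for inhibition of the stress-induced reporter signal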

Row | Structure (SMILES) | IC50
1 | COc1cc(OC)nc(-n2ncc(Br)c(Br)c2=O)n1 | 1.93 µM
2 | Cc1cc(C(=O)N/N=C/c2ccc(-c3cccc(Cl)c3Cl)o2)n[nH]1 | 5.27 µM (inactive)
3 | Oc1ccc(N=Nc2cccc(C(F)(F)F)c2)cc1C=Nc1ccc(N2CCOCC2)cc1 | 6.97 µM (inactive)
4 | CC(C)Cn1c2c(c(=O)[nH]c1=O)C(C(F)(F)F)(C(F)(F)F)N=C(CCC1CCCCC1)N2 | 2.37 µM
5 | CCCCCCCn1c(=O)c(C(=O)Nc2cnccn2)c(O)c2ccccc21 | 3.68 µM
6 | Cc1ccccc1N1CCN(C(=O)c2ccc(Oc3ccc(C(F)(F)F)cn3)cc2)CC1 | 3.48 µM (inactive)
7 | CCOc1ccc(-c2cc(CCCC(=O)NCc3ccc(C)cc3)no2)cc1 | 5.91 µM (inactive)
8 | CC(C)c1ccc(NC(=O)CSc2nc(-c3ccccc3F)nc3nc[nH]c23)cc1 | 9.99 µM (inactive)
9 | CCOC(=O)c1c(C)[nH]c2c1-c1ccccc1C(=O)C2=O | 2.38 µM
10 | Cc1cccc(C)c1NC(=O)COc1ccccc1C(=O)Nc1ccc(Br)cn1 | > 10 µM (inactive)
11 | Nc1ccc2c(c1)C(=O)C(=O)c1ccccc1-2 | 5.08 µM (inactive)
12 | CCC(C)c1ccc(O)c(NC(=O)c2cncc(Br)c2)c1 (stereo not drawn) | 6.67 µM (inactive)
13 | OC(CNCC1CCCO1)Cn1c2ccc(Br)cc2c2cc(Br)ccc21 (stereo not drawn) | 8.2 µM (inactive)
14 | CCOc1cccc(CNc2ccc(O)cc2)c1OCc1ccc(Cl)cc1Cl | 4.58 µM
15 | N#CC1=C(N)N2C(=C(C#N)C1c1ccc(Br)cc1)Nc1ccccc12 (stereo not drawn) | > 10 µM (inactive)
16 | CCCCCCn1c(SCCC)nc2c1c(=O)[nH]c(=O)n2C | 5.41 µM
17 | CC(C)(C)c1ccc(C(O)CCCN2CCC(C(O)(c3ccccc3)c3ccccc3)CC2)cc1 (stereo not drawn) | 4.12 µM (inactive)
18 | Cc1cc(-c2[nH]nc3c2C(c2ccc(Cl)cc2)C(C#N)=C(N)O3)c(C)s1 (stereo not drawn) | 7.25 µM (inactive)
19 | CCCNC(=O)c1nnsc1S(=O)(=O)c1ccc(Cl)cc1 | 2.02 µM (inactive)

Row | Structure (SMILES) | IC50
20 | N#CC(C#N)=C1C=CC=CN1/C(=C\c1ccccc1Cl)C(=O)c1ccccc1 | > 10 µM (inactive)
21 | Cc1ccc(C)c(OCc2ccc(C(=O)N3N=C(C(F)F)CC3(O)C(F)F)o2)c1 (stereo not drawn) | 2.89 µM
22 | CCCCCCCCCCCCCCCCn1cc[n+](C)c1 | 0.86 µM (inactive)
23 | CCCCCCn1c(=O)c(C(=O)N/N=C/c2cccc(F)c2)c(O)c2ccccc21 | 7.03 µM (inactive)
24 | O=C(NC(c1ccccc1)c1c(O)ccc2ccccc12)c1ccccc1Cl (stereo not drawn) | > 10 µM (inactive)
25 | CCC(C)(C)c1ccc(Oc2ccc(N)cc2)cc1 | < 0.16 µM
26 | CC(C)C(=O)N1CCC(CN=Cc2c(O)n(C3CCCCC3)c(=O)n(C3CCCCC3)c2=O)CC1 | 9.9 µM (inactive)
27 | O=C(c1ccco1)N1CCN(c2c(-c3ccccc3)c3cc(Cl)ccc3[nH]c2=O)CC1 | 5.65 µM (inactive)
28 | CN1CCc2c(sc(NC(=O)c3cc4cc([N+](=O)[O-])ccc4s3)c2C(N)=O)C1 | 4.6 µM
29 | CCOc1cc(/C=C2/C(=O)ON=C2C)ccc1OCc1ccccc1F | 9.48 µM (inactive)
30 | O=C(CSc1ncnc2[nH]ncc12)Nc1nc(-c2ccc(F)c(F)c2)cs1 | 6.98 µM (inactive)
31 | O=C(NCc1ccccc1Cl)c1ccc(S(=O)(=O)Nc2cccc(C(F)(F)F)c2)cc1 | > 10 µM (inactive)
32 | CCCCn1c(NS(=O)(=O)c2ccccc2)c(S(=O)(=O)c2ccc(C)cc2)c2nc3ccccc3nc21 | 9.67 µM (inactive)
33 | NS(=O)(=O)c1ccc(N/N=C2/CCCCC2C2CCCCC2)c([N+](=O)[O-])c1 (stereo not drawn) | 5.37 µM (inactive)
34 | CCN(CC)CCn1c(SCC(=O)Nc2ccc(F)cc2)nc2c(sc3ccccc32)c1=O | > 10 µM (inactive)
35 | CCCCn1c(NS(=O)(=O)c2ccc(C)cc2)c(S(=O)(=O)c2ccccc2)c2nc3ccccc3nc21 | > 10 µM (inactive)
36 | CCc1ccc(OCC(=O)NC(NC(=S)Nc2ccc(C)cc2C)C(Cl)(Cl)Cl)cc1 (stereo not drawn) | 8.46 µM (inactive)
37 | Cc1cccc(Nc2nc(N)c([N+](=O)[O-])c(N3CC(C)CC(C)C3)n2)c1 (stereo not drawn) | > 10 µM (inactive)
38 | CCCCCC1CC(CC(=O)Nc2ccc([N+](=O)[O-])cc2)C(=O)O1 (stereo not drawn) | 9.17 µM (inactive)
